Results published in patent publication US7829277B2, “Methods for identifying compounds that suppress chemically-induced carcinogenesis” (The Regents of the University of California, priority 2004, dated 2010).

What was measured:
[1] = system: PC3 prostate cancer cells; settings: PC3 prostate cancer cells treated with genistein; cited from earlier work
[2] = system: E1A-transfected mouse fibroblast NIH 3T3 cells; settings: E1A-transfected NIH 3T3 cells; cited from earlier work
[3] = system: normal prostate epithelial cells (RWPE-1); test: Microarray gene expression profile (Affymetrix Human Genome U133A) after lunasin treatment; format: cell-based
Method: (§1) Rostate epithelial cells, RWPE-1 (normal) and RWPE-2 (malignant) were cultivated in the Keratinocyte-Serum free medium with 5 ng/ml rEGF and 0.05 mg/ml bovine pituitary extract. Cells were grown to 70% confluence, after which, cells were harvested and transferred to a 150 mm^2 plate at a cell density of 1×10^7 cells/ml. Lunasin peptide was added to a final concentration of 2 μM. The cells were incubated for 24 hours after lunasin treatment. […] RWPE-1 and RWPE-2 cells that were not treated with lunasin served as negative controls.
(§2) Microarrray analysis. Total RNA from each treatment was isolated by Trizol (Invitrogen, Carlsbad, Calif.). The cDNA used in microarray analysis was synthesized from 10 μg of total RNA using the SuperScript Choice system (Invitrogen). The cDNA was then transcribed in vitro in the presence of biotin-labeled nucleotide triphophates using T7 RNA polymerase after phenol-chloroform extraction and ethanol precipitation. cRNA was purified using the RNeasy mini kit (Qiagen) and fragmented at 94° C. for 30 min in the buffer containing 0.2 M Tris-acetate (pH 8.1) 0.5 M potassium acetate, and 0.15 M magnesium acetate. Fragmented cRNA was hybridized overnight at 45° C. to the human genome U133A Genechips (Affymetrix) representing approximately 22,215 transcripts. Hybridization was then detected using a confocal laser scanner (Affymetrix). The gene expression levels of samples were normalized and analyzed using RMA analysis (Irizarry et al., 2003).

[4] = system: malignant prostate epithelial cells (RWPE-2); test: as above; format: cell-based
Method: as §1, §2

[5] = system: C3H 10T1/2 mouse embryo fibroblast cells; settings: lunasin added exogenously at nanomolar concentrations; cited from earlier work
[6] = system: E1A-transfected C3H10T1/2 cells; settings: cited from earlier work
female SENCAR mice = settings: topical application; cited from earlier work
nucleus = settings: after 18 hours of incubation; cited from earlier work
[7] = system: THBS1, PRKAR1A, TOB1, HIF1A mRNA in RWPE-1 and RWPE-2 cells; test: Real-time RT-PCR verification of selected genes; format: cell-based, human; settings: RWPE-1 and RWPE-2 treated with 2 microMoles lunasin; normalized to β-actin
Method: HIFIA-hypoxia-inducible factor 1, alpha subunit; PRKARIA-protein kinase, cAMP-dependent, regulatory, type I, alpha; TOB 1-transducer of ERBB2, 1; THSB 1-thrombospondin 1
Quantitative PCR. To confirm microarray data, the total RNA prepared for microarray analysis was used for RT-PCR analysis of selected genes. The cDNA used for quantitative PCR was synthesized from 3 μg of total RNA using the SuperScript First-Strand Synthesis for RT-PCR kit (Invitrogen), following manufacturer's recommendations. The cDNA was diluted 4-fold and 2 μl of cDNA was added to the quantitative PCR reaction using FAM-labeled TaqMan probes purchased from Applied Biosystems. The quantitative PCR reactions were performed in triplicate using a PRISM® ABI 7900HT Sequence Detection System (Applied Biosystems) and the expression of the β-actin gene (BACT) was used for normalization. Changes in expression were calculated using relative quantification as follows: ΔΔCt=ΔCtq−ΔCtcb; where Ct=the cycle number at which amplification rises above the background threshold, ΔCt=the change in Ct between two test samples, q=the target gene, and cb=the calibrator gene. Gene expression is then calculated as 2^−ΔΔ^Ct (Applied Biosystems).

deacetylated histone H4 = deacetylated histone H4 (Homo sapiens, UniProt P62805); settings: chemically synthesized lunasin; cited from earlier work
[8] = system: p21/WAF1/Cip1 protein in cells transfected by the E1A oncogene; settings: not in untransfected control cells; cited from earlier work
[9] = system: prostate cancer cell lines; settings: cited from earlier work
[10] = system: normal prostate epithelial cells; settings: cited from earlier work
[11] = RWPE-1, 24 hour exposure to 2 micromolar lunasin

O=c1c(-c2ccc(O)cc2)coc2cc(O)cc(O)c12 [genistein]
gene expression regulation (microarray) [1]: regulates the expression of genes that are involved in control of cell growth, cell cycle, apoptosis, cell signaling, angiogenesis, tumor cell invasion and metastasis

lunasin
foci formation [2]: suppress foci formation | genes down-regulated ([3]; RWPE-1, 24 h lunasin): No genes were down-regulated | Fold-change BNIP3, NIP3 (BCL2/adenovirus E1B 19 kDa interacting prot. 3) [3, 11]: 2.05 | Fold-change BUB1B, BUBR1 [3, 11]: 2.23 | Fold-change ERBB2IP, ERBIN (erbb2 interacting protein) [3, 11]: 2.23 | Fold-change MAD2L1 (MAD2 mitotic arrest deficient-like 1) [3, 11]: 2.12 | Fold-change PORIMIN (pro-oncosis receptor inducing membrane injury gene) [3, 11]: 2.26 | Fold-change PRKAR1A, PKA (protein kinase, cAMP-dependent, regulatory, type I, alpha) [3, 11]: 2.45 | Fold-change PRKCL2, PRK2 (protein kinase C-like 2) [3, 11]: 2.33 | Fold-change PSMC6 (proteasome 26S subunit, ATPase, 6) [3, 11]: 2.58 | Fold-change RANBP2 (RAN binding protein 2) [3, 11]: 2.36 | Fold-change SMURF2 (E3 ubiquitin ligase SMURF2) [3, 11]: 2.29 | Fold-change SPTLC1 (serine palmitoyltransferase, long chain base subunit 1) [3, 11]: 2.12 | Fold-change THBS1, TSP1 (thrombospondin 1) [3, 11]: 2.05 | Fold-change TOB1 (transducer of ERBB2, 1) [3, 11]: 2.32 | Fold-change TTK (TTK protein kinase) [3, 11]: 2.08 | Fold-change UBE1C (ubiquitin-activating enzyme E1C) [3, 11]: 2.15 | Fold-change USP1 (ubiquitin specific protease 1) [3, 11]: 2.23 | total number of genes with a greater than twofold change in expression ([3]; RWPE-1 and RWPE-2 together, of up to 22,215 genes screened, 24 h lunasin): 123 genes | number of genes up-regulated (greater than twofold) ([3]; RWPE-1 normal cells, 24 h exposure to lunasin peptide): 121 genes | BTB (POZ) containing domain 1 (ABTB1 or BPOZ) gene regulation (microarray) ([3]; microarray, lunasin treatment): up-regulated | SP3 gene regulation (microarray) ([3]; microarray, lunasin treatment): up-regulated | connexin 43 gap junction protein expression (microarray) ([3]; microarray, lunasin treatment): up-regulates | cyclin D1 regulation (microarray) ([3]; microarray, lunasin treatment): do not show down regulation | hypoxia-inducible factor-1α (HIF1-A) gene regulation (microarray) ([3]; microarray, lunasin treatment): up-regulated | p21/WAF1/Cip1 transcript regulation (microarray) ([3]; microarray, lunasin treatment): did not show up-regulation | genes down-regulated ([4]; RWPE-2, 24 h lunasin): No genes were down-regulated | number of genes up-regulated (greater than twofold) ([4]; RWPE-2 malignant cells, 24 h exposure to lunasin peptide): 2 genes | suppression of chemical carcinogen-induced (DMBA, MCA) foci formation [5]: Significant suppression | apoptosis induction [6]: induce apoptosis | skin tumorigenesis (female SENCAR mice): inhibited skin tumorigenesis | subcellular localization (nucleus): localize in the nucleus | real-time RT-PCR mRNA level changes of THBS1, PRKAR1A, TOB1, HIF1A [7]: consistent with the microarray data | binding to histone in vitro (deacetylated histone H4): preferentially binds deacetylated histone H4 | p21/WAF1/Cip1 protein levels [8]: increased by five fold

B1: BBI: soybean derived serine protease inhibitor with anti-carcinogenic activity (protein, UniProt P01055 40-110, looked up)
Bowman-Birk type proteinase …: DDESSKPCCDQCACTKSNPPQCRCSDMRLNSCHSACKSCICALSYPAQCFCVDITDFCYEPCKPSEDDKEN
growth, invasion and clonogenic survival of prostate cancer cell lines [9]: inhibited the growth, invasion and clonogenic survival | effect on normal prostate epithelial cells [10]: no effect
